Drawing on patent US11130726B2, “Therapeutic compounds and methods of use thereof” (GENENTECH, INC., priority 2015, dated 2021), this text covers IC50 for 18 molecules.

Some results are limits rather than exact numbers.

For the test, the target named is T1, hNav1.7 (Homo sapiens, UniProt Q15858).
T1 construct: expressed in transfected cells
Put plainly: Tritiated compound competitive binding to membranes from cells heterologously expressing hNav1.7 and the β1 subunit (LBA). The following applies: read-out: NaV1.7 (LBA). How it is done: Example 19 Tritiated Compound Binding to Membranes Isolated from Cells that Heterologously Express hNav1.7 and the β1 Subunit
Preparation of membranes containing recombinantly expressed sodium channels: Frozen recombinant cell pellets were thawed on ice and diluted to 4 times the cell pellet weight with ice cold 50 mM Tris HCl, pH 7.4 buffer. The cell suspensions were homogenized on ice using a motorized glass dounce homogeniser. Homogenates were further diluted 8.4 times with ice cold 50 mM Tris HC1, pH 7.4 buffer and then centrifuged at 200× g at 4° C. for 15 min. The supernatants were collected and centrifuged at 10000× g at 4° C. for 50 min. The pellets were then re-suspended in 100 mM NaCl, 20 mM Tris HCl, pH 7.4 buffer containing 1% v/v protease inhibitors (Calbiochem) and re-homogenized on ice. The homogenized membranes were then processed through a syringe equipped with a 26 gauge needle. Protein concentrations were determined by Bradford Assay and the membranes were stored at −80° C.
Radioligand Binding Studies: Saturation experiments. A competitive NaV1.7 inhibitor having a methyl group was tritiated. Three tritiums were incorporated in place of methyl hydrogens to generate[^3H]compound. Binding of this radioligand was performed in 5 mL borosilicate glass test tubes at room temperature. Binding was initiated by adding membranes to increasing concentrations of [^3H]compound in 100 mM NaCl, 20 mM Tris HCl, pH 7.4 buffer containing 0.01% w/v bovine serum albumin (BSA) for 18 h. Non-specific binding was determined in the presence of 1 μM unlabeled compound. After 18 h, the reactants were filtered through GF/C glass fiber filters presoaked in 0.5% w/v polyethylene imine. Filters were washed with 15 mL ice cold 100 mM NaCl, 20 mM Tris HCl, pH7.4 buffer containing 0.25% BSA to separate bound from free ligand. [^3H]compound bound to filters was quantified by liquid scintillation counting.
Competitive binding experiments: Binding reactions were performed in 96-well polypropylene plates at room temperature for 18 h. In 360 μL, membranes were incubated with 100 pM [^3H]compound and increasing concentrations of Test Compound. Non-specific binding was defined in the presence of 1 μM unlabeled compound. Reactions were transferred and filtered through 96-well glass fiber/C filter plates presoaked with 0.5% polyethylene imine. The filtered reactions were washed 5 times with 200 μL ice cold buffer containing 0.25% BSA. Bound radioactivity was determined by liquid scintillation counting.
Data Analysis: For saturation experiments, non-specific binding was subtracted from total binding to provide specific binding and these values were recalculated in terms of pmol ligand bound per mg protein. Saturation curves were constructed and dissociation constants were calculated using the single site ligand binding model: Beq=(Bmax*X)/(X+Kd), where Beq is the amount of ligand bound at equilibrium, Bmax is the maximum receptor density, Kd is the dissociation constant for the ligand, and X is the free ligand concentration. For competition studies percent inhibition was determined and IC50 values were calculated using a 4 parameter logistic model (% inhibition=(A+((B−A)/(1+((x/C)^D)))) using XLfit, where A and B are the maximal and minimum inhibition respectively, C is the IC50 concentration and D is the (Hill) slope.

T1 sequence (Q15858 whole entry): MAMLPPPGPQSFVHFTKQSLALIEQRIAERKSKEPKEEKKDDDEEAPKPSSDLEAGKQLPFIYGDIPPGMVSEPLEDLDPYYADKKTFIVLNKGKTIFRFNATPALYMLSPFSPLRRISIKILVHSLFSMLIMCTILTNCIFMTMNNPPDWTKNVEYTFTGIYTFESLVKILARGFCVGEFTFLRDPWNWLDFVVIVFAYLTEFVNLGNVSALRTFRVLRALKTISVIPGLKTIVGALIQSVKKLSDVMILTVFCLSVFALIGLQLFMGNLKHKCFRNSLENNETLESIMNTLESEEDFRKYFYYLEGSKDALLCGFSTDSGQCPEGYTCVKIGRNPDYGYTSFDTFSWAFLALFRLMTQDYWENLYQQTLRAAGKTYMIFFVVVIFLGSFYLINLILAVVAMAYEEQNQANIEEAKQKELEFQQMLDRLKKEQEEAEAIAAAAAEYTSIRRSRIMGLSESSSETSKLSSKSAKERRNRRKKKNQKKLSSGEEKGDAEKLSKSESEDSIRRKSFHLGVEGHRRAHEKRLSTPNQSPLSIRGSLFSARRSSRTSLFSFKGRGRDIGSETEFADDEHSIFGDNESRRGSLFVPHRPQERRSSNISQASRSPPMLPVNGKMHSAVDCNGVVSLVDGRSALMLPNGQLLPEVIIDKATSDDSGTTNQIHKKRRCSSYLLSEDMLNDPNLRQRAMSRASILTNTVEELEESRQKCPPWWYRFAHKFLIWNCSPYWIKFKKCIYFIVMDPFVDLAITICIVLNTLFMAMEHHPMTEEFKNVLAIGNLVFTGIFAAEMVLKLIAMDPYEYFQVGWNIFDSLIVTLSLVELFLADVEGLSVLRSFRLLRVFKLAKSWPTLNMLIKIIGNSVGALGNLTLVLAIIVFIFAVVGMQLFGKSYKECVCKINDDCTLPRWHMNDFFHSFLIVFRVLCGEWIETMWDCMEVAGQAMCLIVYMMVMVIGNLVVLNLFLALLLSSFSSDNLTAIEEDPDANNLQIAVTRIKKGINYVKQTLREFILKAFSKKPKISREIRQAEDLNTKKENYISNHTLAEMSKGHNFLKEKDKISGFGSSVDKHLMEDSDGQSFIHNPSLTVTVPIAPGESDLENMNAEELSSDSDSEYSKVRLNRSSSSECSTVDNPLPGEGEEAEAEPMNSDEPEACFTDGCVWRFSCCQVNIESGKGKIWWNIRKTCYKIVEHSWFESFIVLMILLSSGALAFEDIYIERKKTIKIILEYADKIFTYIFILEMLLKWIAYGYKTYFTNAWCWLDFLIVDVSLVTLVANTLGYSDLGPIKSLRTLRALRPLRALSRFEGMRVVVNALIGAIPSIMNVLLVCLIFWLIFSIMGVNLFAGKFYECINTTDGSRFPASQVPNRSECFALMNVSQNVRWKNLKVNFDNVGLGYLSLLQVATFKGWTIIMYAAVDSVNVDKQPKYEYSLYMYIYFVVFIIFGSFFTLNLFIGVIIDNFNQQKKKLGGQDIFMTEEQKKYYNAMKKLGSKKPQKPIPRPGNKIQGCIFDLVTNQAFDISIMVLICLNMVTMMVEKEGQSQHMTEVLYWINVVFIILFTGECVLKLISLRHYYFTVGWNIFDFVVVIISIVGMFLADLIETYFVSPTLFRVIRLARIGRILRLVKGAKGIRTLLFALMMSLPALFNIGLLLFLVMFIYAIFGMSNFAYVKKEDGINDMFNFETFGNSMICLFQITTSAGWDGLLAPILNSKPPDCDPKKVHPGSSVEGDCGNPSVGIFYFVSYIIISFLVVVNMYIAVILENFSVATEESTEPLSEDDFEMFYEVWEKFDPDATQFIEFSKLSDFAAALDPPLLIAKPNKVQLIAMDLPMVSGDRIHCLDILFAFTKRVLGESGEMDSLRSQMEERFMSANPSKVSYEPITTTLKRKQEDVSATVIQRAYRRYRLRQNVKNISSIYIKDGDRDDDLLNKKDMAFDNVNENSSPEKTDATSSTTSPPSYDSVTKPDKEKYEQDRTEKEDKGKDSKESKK
T1 sequence (Q07699 19-218 partner): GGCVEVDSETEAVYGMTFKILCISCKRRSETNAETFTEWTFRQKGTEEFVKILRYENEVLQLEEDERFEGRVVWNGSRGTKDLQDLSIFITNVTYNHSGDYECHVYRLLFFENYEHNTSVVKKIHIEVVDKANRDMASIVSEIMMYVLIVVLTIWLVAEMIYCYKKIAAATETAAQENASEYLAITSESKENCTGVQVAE

As to `O=C(O)[C@@H]1CC[C@H]1C(=O)c1cc(C2CC2)c(OCC23CC4CC(CC(C4)C2)C3)cc1F` (racemic) [Example 7], the IC50 was 760 nM.

On to `O=C(O)[C@@H]1CCC[C@H]1S(=O)(=O)c1cc(Cl)c(OCC23CC4CC(CC(C4)C2)C3)cc1F` (racemic) [Example 15], for which the IC50 was determined as 454 nM.

Consider `O=C(O)[C@@H]1CCC[C@H]1C(=O)c1cc(C2CC2)c(OCc2ccccc2)cc1F` (relative stereo) [Example 8, trans-2-(4-(benzyloxy)-5-cyclopropyl-2-fluorobenzoyl)-cyclopentane-1-carboxylic acid], for which the IC50 came to 860 nM.

As for `O=C(O)[C@@H]1CCC[C@H]1C(=O)c1cc(C2CC2)c(COc2cc(Cl)cc(Cl)c2)cc1F` (relative stereo) [Example 10, (1,2-trans)-2-(5-cyclopropyl-4-((3,5-dichlorophenoxy)methyl)-2-fluorobenzoyl)cyclopentane-1-carboxylic acid], the IC50 was 21 nM.

On to `CN(c1cc(Cl)c(OCC23C[C@H]4C[C@@H](C2)C[C@@H](C3)C4)cc1F)[C@@H]1CCC[C@H]1C(=O)O` (relative stereo) [Example 18, 2-(4-(1-adamantylmethoxy)-5-chloro-2-fluoro-N-methylanilino)-cyclopentanecarboxylic acid], for which the IC50 is more than 10000 nM.

For the molecule `O=C(O)[C@@H]1CCC[C@H]1[S+]([O-])c1cc(Cl)c(OCC23CC4CC(CC(C4)C2)C3)cc1F` (stereo in doubt) [Example 16], the IC50 was found to be 1290 nM.

Turning to `O=C(O)[C@@H]1CCC[C@H]1C(=O)c1cc(C2CC2)c(OCC23CC4CC(CC(C4)C2)C3)cc1F` [Example 1], the IC50 amounted to 9 nM.

Take `O=C(O)[C@H]1CCC[C@@H]1C(=O)c1cc(C2CC2)c(OCC23CC4CC(CC(C4)C2)C3)cc1F` [Example 2]: the IC50 turned out to be 510 nM.

As to `O=C(c1cc(Cl)c(OCC23CC4CC(CC(C4)C2)C3)cc1F)[C@H]1CCC[C@H]1C(=O)O` [Example 3], the IC50 is 4200 nM.

For `O=C(O)[C@@H]1CCC[C@H]1C(=O)c1cc(Cl)c(OCC23CC4CC(CC(C4)C2)C3)cc1F` [Example 4], the IC50 came to 440 nM.

Regarding `O=C(O)[C@@H]1CCC[C@H]1Cc1cc(C2CC2)c(OCC23CC4CC(CC(C4)C2)C3)cc1F` [Example 5], the IC50 worked out at 3100 nM.

As to `O=C(O)[C@@H]1CCCC[C@H]1C(=O)c1cc(C2CC2)c(OCC23CC4CC(CC(C4)C2)C3)cc1F` [Example 6], the IC50 amounted to 55 nM.

In the case of `C[C@@H](c1cc(Cl)cc(Cl)c1)N1CCC(COc2cc(F)c(C(=O)[C@@H]3CCC[C@H]3C(=O)O)cc2C2CC2)CC1` [Example 9, (1,2-trans)-2-(5-cyclopropyl-4-((1-((S)-1-(3,5-dichlorophenyl)ethyl)piperidin-4-yl)methoxy)-2-fluorobenzoyl)cyclopentane-1-carboxylic acid], the IC50 is 51 nM.

On to `C[C@H]1CC[C@@H](C(=O)c2cc(C3CC3)c(OCC34CC5CC(CC(C5)C3)C4)cc2F)[C@@H]1C(=O)O` [Example 11], for which the IC50 turned out to be 700 nM.

Regarding `C[C@@H]1CC[C@H](C(=O)c2cc(C3CC3)c(OCC34CC5CC(CC(C5)C3)C4)cc2F)[C@H]1C(=O)O` [Example 12], the IC50 came to 3 nM.

For the molecule `O=C(O)[C@@H]1CCC[C@H]1C(=O)c1cc(C2CC2)c(OCC2CCN(Cc3cc(C(F)(F)F)ccc3Cl)CC2)cc1F` [Example 13, (1R,2R)-2-(4-((1-(2-chloro-5-(trifluoromethyl)benzyl)piperidin-4-yl)methoxy)-5-cyclopropyl-2-fluorobenzoyl)cyclopentane-1-carboxylic acid], the IC50 was determined as 21 nM.

Take `O=C(O)C1CCCC1Sc1cc(Cl)c(OCC23CC4CC(CC(C4)C2)C3)cc1F` (stereo not drawn) [Example 14]: the IC50 was 2630 nM.

On to `O=C(O)C1CCCC1Nc1cc(Cl)c(OCC23CC4CC(CC(C4)C2)C3)cc1F` (stereo not drawn) [Example 17, 2-((4-adamant-1-ylmethoxy)-5-chloro-2-fluoro-anilino)cyclopentanecarboxylic acid], for which the IC50 amounted to 3020 nM.
